“Also recorded” adds a separate entry of the source. Each block holds one molecule with its values, some of them ahead of it.
How the values were obtained:
[1] = test system: cleaved caspase 3 and PARP; assay: Western blot of apoptotic molecules; format: cell-based, mouse; conditions: B16 melanoma cells
B16 melanoma cells [2] = assay: MTT cell viability assay; format: cell-based, mouse; conditions: 24 hrs of treatment; for B16 melanoma cell viability / proliferation rate: increasing dosages
Protocol: B16 mouse melanoma cells were purchased from (ATCC, Manassas, Va., USA).
The base medium for the cell line was Dulbecco's modified Eagle's medium (DMEM). To make the complete growth medium, fetal bovine serum (final concentration, 10%) was added to the base medium. Tocotrienol (T3) and tocopherol (TP) isomers and the palm tocotrienol-rich fraction (TRF) were purified from a palm fatty acid distillate (PFAD) using molecular distillation and Novasep® equipment (Novasep, Pompey, France). The extraction facility is located in Tuas, Singapore. The PFAD feed was purchased from Kuala Lumpur Kepong Berhad (Kuala Lumpur, Malaysia). The purity of the vitamin E isomers was verified by HPLC and gas chromatography (GC) percentage peak area.
For the cell viability study, 5×10^3 cells re-suspended in 100 μl of medium were plated into each well of a 96-well plate. The cells were then treated with different concentrations of the vitamin-E isomers for 24 hrs. After the treatment, 20 μl of MTT solution (1 mg/ml in PBS; Sigma-Aldrich, St. Louis, Mo., USA) was added to each well and the cells were incubated at 37° C. for 2 hrs. The formazan crystals were then re-suspended in 200 μl of DMSO and the intensity at 595 nm was measured.

tyrosinase [3] = assay: Western blot of tyrosinase protein expression in B16 melanoma cells; format: cell-based, mouse; conditions: for time response of tyrosinase suppression: single dose, 24 hrs versus 48 hrs; for tyrosinase protein suppression, dose response and relative potency: increasing dosage
Protocol: Carcinogenesis, 2006, 27, 2180-9. Briefly, cell lysates were prepared by suspending cell pellets in lysis buffer (50 mmol/l Tris-HCl [pH 8.0], 150 mmol/l NaCl, 1% NP40, 0.5% deoxycholate, 0.1% SDS, […], 1 μg/ml leupeptin, and 1 mmol/l phenylmethylsulfonyl fluoride). The protein concentration was measured using the DC Protein Assay kit (Bio-Rad, Hercules, Calif., USA). An equal amount of protein (30 μg) was loaded onto a 10% SDS polyacrylamide gel for electrophoresis, then transferred onto a polyvinylidene difluoride membrane (Amersham, Piscataway, N.J., USA). The membrane was then incubated with primary antibodies for 1 hr at room temperature against tyrosinase, Id1, and beta-actin (Santa Cruz Biotechnology, Inc., Santa Cruz, Calif., USA). After incubation with appropriate secondary antibodies, signals were visualized by an ECL Western blotting system (Amersham). The expression of β-actin was assessed as an internal loading control for total cell lysate.

B16 melanoma cells [4] = assay: Anti-pigmentation effect, photographs of cell pellets; format: cell-based, mouse
Protocol: (§1) At different time points, cells were harvested using trysin-EDTA and the cell pellets were washed once with phosphate-buffered saline (PBS). A sample amount from each compound treatment group was divided into two equal parts. These cell pellets were then stored at −80° C. prior to the measurement of the tyrosinase activity and melanin content.

tyrosinase mRNA = assay: Reverse transcriptase PCR of tyrosinase mRNA; format: cell-based, mouse; conditions: B16 melanoma cells
Description: Total RNA was isolated using Trizol reagent according to the manufacturer's protocol (Invitrogen, Carlsbad, Calif., USA). cDNA was synthesized using the SuperScript First Strand Synthesis System (Invitrogen, Carlsbad, Calif., USA) and was then amplified by PCR with tyrosinase-specific primers (forward primer, tyrosinase-S,5′-[…]-3′ [−2236/−2217] (SEQ ID NO: 1) and reverse primer, tyrosinase-AS,5′-[…]-3′ [+63/+42]) (SEQ ID NO: 2) and GAPDH specific primers: 5′ to 3′F […] (SEQ ID NO: 3); 5′ to 3′R […] (SEQ ID NO: 4). The PCR cycling protocol was as follows: 30 cycles for 10 min at 95° C., 30 sec at 95° C., 30 sec at 55° C., 1 min at 72° C., and 10 min at 72° C. Glyceraldehyde 3-phosphate dehydrogenase (GAPDH) was amplified as an internal control. The PCR products were electrophoresed on a 2% agarose gel and analyzed using a gel documentation system.

tyrosinase [5] = assay: UV-induced tyrosinase protein expression, Western blot; format: cell-based, mouse; conditions: for tyrosinase protein expression of B16 cells exposed to UV: UV 1, 10, 30 and 60 minutes
Protocol: (§2) The UVB source for cell irradiation was provided using a UVP UVM-57 handheld UV lamp (UVP Inc, Upland, Calif., USA).
Briefly, cell lysates were prepared by suspending cell pellets in lysis buffer (50 mmol/l Tris-HCl [pH 8.0], 150 mmol/l NaCl, 1% NP40, 0.5% deoxycholate, 0.1% SDS, 1 mg/ml aprotinin, 1 μg/ml leupeptin, and 1 mmol/l phenylmethylsulfonyl fluoride). The protein concentration was measured using the DC Protein Assay kit (Bio-Rad, Hercules, Calif., USA). An equal amount of protein (30 μg) was loaded onto a 10% SDS polyacrylamide gel for electrophoresis, then transferred onto a polyvinylidene difluoride membrane (Amersham, Piscataway, N.J., USA). The membrane was then incubated with primary antibodies for 1 hr at room temperature against tyrosinase, Id1, and beta-actin (Santa Cruz Biotechnology, Inc., Santa Cruz, Calif., USA). After incubation with appropriate secondary antibodies, signals were visualized by an ECL Western blotting system (Amersham). The expression of β-actin was assessed as an internal loading control for total cell lysate.

B16 melanoma cells [6] = assay: Melanin content of treated B16 melanoma cells; format: cell-based, mouse; conditions: for melanin content lower than controls: 20 μM
Protocol: as §1
Harvested cell pellets were dissolved in 1 ml of 1N sodium hydroxide before incubation at 80° C. The melanin content was then immediately measured at 420 nm. The absorbance percentage values of the treated groups in comparison to untreated controls were calculated against per μg of the determined total protein content.

[7] = test system: B16 cells xenografted on the flank of nude mice; assay: B16 xenograft model in nude mice; format: in vivo; conditions: cells pre-treated with 20 μM for 1 week, 14 days oral supplementation
Protocol: The experimental protocol was approved by the IACUC Committee of the A-STAR Biological Resource Centre (BRC) at Biopolis (IACUC no. 080302). Male BALB/c athymic nude mice (4-5 weeks old, 18-22 g) were purchased from The Jackson Laboratory (Bar Harbor, Me., USA). Mice were housed in Department 1 of the Biological Resource Centre (Biopolis, Singapore) under the standard condition (20.8±2° C., 55±1% relative humidity, 12 hrs light/dark cycle) with rodent diet (Harlan Laboratories, Inc., Indianapolis, Ind., USA) and chlorinated reverse osmosis water supplied in a pathogen-free environment. Briefly, B16 cells were pre-treated with 20 μM of γ- and δ-T3, or palm TRF for 1 week. Then, 5×10^5 pre-treated B16 cells in 100 μl serum-free DMEM were injected subcutaneously into the flank of nude mice using a 1-ml syringe with a 26-gauge needle (Becton Dickinson, Franklin Lakes, N.J., USA). This was followed by a 2-week oral supplementation of γ- and δ-T3, or palm TRF at the dose of 100 mg/kg/day. Altogether, there are four experimental groups: G1, vehicle control; G2, γT3 (100 mg/kg/d); G3, δT3 (100 mg/kg/d); and G4, full spectrum palm TRF (100 mg/kg/d). The mice were weighed daily and the tumors were measured using a Digital Carbon Fiber Caliper (Fisher Scientific, Pittsburgh, Pa., USA) at the 5th and 14th day after innoculation. After 14 days of treatment, the mice were euthanized by CO2 inhalation. Blood samples were collected through cardiac bleeding using a 26-gauge needle. Blood samples were incubated at room temperature for 30 min, followed by centrifugation at 4400 rpm for 30 min at 4° C. Serum, as the supernatant, was separated from plasma and stored at −80° C. Tumors, liver, kidney, spleen, lung, heart, and skin were harvested.

B16 cells = assay: Melanin content of pre-treated B16 cells after UV exposure; format: cell-based, mouse; conditions: 10 minutes UV exposure (short and long wave UV)
Description: as §2

[8] = 0.05% (3.5 mM kojic acid, 4.5 mM sodium lactate)

Molecule: CC(C)=CCC/C(C)=C/CC/C(C)=C/CC[C@]1(C)CCc2c(C)c(O)cc(C)c2O1 [β-tocotrienol, 5,8-dimethyltocotrienol]
induction of apoptotic molecules (cleaved caspase 3 and PARP) [1]: induced critical apoptotic molecules in a dose-dependent manner
induction of apoptotic molecules (cleaved caspase 3 and PARP) ([1]; listed as β-T3): induced cellular apoptosis
B16 melanoma cell viability / proliferation rate (B16 melanoma cells [2]): inhibited the proliferation rate of B16 melanoma cells in a dose-dependent fashion; also recorded: inhibit B16 melanoma cell viability at high concentrations

Molecule: CC(=O)Oc1cc2c(c(C)c1C)OC(C)(CC/C=C(\C)CC/C=C(\C)CCC=C(C)C)CC2 (stereo not shown) [γT3 acetate, γ-tocotrienol acetate]
tyrosinase protein expression (tyrosinase [3]; 20 μM treatment): suppresses tyrosinase protein expression

Molecule: O=c1cc(CO)occ1O [kojic acid]
induction of apoptotic molecules (cleaved caspase 3 and PARP) [1]: induced cellular apoptosis; also recorded: induced critical apoptotic molecules in a dose-dependent manner
cell pellet pigmentation (B16 melanoma cells [4]; 20 μM): comparable pigmentation level to controls
cell pellet pigmentation (B16 melanoma cells [4]; [8]): lighter cell pigmentation
concentration with anti-proliferation effect (B16 melanoma cells [2]): ≥ 0.5%
B16 melanoma cell viability / proliferation rate (B16 melanoma cells [2]): inhibit B16 melanoma cell viability at high concentrations
tyrosinase mRNA (tyrosinase mRNA): not affected; also recorded: No change of tyrosinase mRNA

tyrosinase mRNA (tyrosinase mRNA): No change of tyrosinase mRNA
tyrosinase mRNA (tyrosinase mRNA; listed as αTP): not affected
Molecule: Cc1c(C)c2c(c(C)c1O)CC[C@@](C)(CCC[C@H](C)CCC[C@H](C)CCCC(C)C)O2 [α-tocopherol, 5,7,8-trimethyltocol]
tyrosinase protein expression of B16 cells exposed to UV (tyrosinase [5]): not able to block UVB-induced activation of tyrosinase at all time points tested
cell pellet pigmentation (B16 melanoma cells [4]; 20 μM): comparable pigmentation level to controls
time response of tyrosinase suppression (tyrosinase [3]): no impact on the suppression of tyrosinase

tyrosinase mRNA (tyrosinase mRNA): No change of tyrosinase mRNA
tyrosinase mRNA (tyrosinase mRNA; listed as δ-T3): not affected
Molecule: CC(C)=CCC/C(C)=C/CC/C(C)=C/CC[C@]1(C)CCc2cc(O)cc(C)c2O1 [δ-tocotrienol, 8-methyltocotrienol]
melanin content lower than controls (B16 melanoma cells [6]; day 5): 45%
melanin content lower than controls (B16 melanoma cells [6]; day 9): 30%
constitutive melanin synthesis (B16 melanoma cells [6]; B16 melanoma cells): suppress constitutive melanin synthesis
suppression of short-term UVB-induced tyrosinase activation (tyrosinase [5]; <10 min UVB): more potent than γT3
tyrosinase protein expression of B16 cells exposed to UV (tyrosinase [5]): significantly suppressed the tyrosinase protein expression
long-term inhibitory effect on UVB-induced tyrosinase activation (tyrosinase [5]; long-term UVB): comparable
induction of apoptotic molecules (cleaved caspase 3 and PARP) [1]: induced critical apoptotic molecules in a dose-dependent manner
induction of apoptotic molecules (cleaved caspase 3 and PARP) ([1]; listed as δ-T3): induced cellular apoptosis
cell pellet pigmentation (B16 melanoma cells [4]; 20 μM, listed as delta-T3): lighter cell pigmentation
cell pellet pigmentation (B16 melanoma cells [4]; 20 μM, listed as δT3): lighter cell pigmentation
pigmentation of solid tumors [7]: lighter in colour compared to controls
tumor size [7]: significantly smaller
tyrosinase protein expression (tyrosinase [3]; 20 μM treatment, listed as δ-T3): remarkable suppression of tyrosinase protein expression
tyrosinase protein expression (tyrosinase [3]; 20 μM treatment, listed as δT3): suppresses tyrosinase protein expression
tyrosinase protein suppression, dose response and relative potency (tyrosinase [3]; listed as δ-T3): significant suppression of tyrosinase in a dose-dependent manner
tyrosinase protein suppression, dose response and relative potency (tyrosinase [3]; listed as δT3): most potent inhibitor of tyrosinase protein
time response of tyrosinase suppression (tyrosinase [3]; listed as δ-T3): enhanced by increasing the treatment period from 24 to 48 hrs
time response of tyrosinase suppression (tyrosinase [3]; listed as δT3): enhanced after a 48 hr incubation period
B16 melanoma cell viability / proliferation rate (B16 melanoma cells [2]): inhibited the proliferation rate of B16 melanoma cells in a dose-dependent fashion; also recorded: inhibit B16 melanoma cell viability at high concentrations
melanin content after UV exposure (B16 cells): significantly suppressed the melanin content

Molecule: alpha arbutin [reference compound]
induction of apoptotic molecules (cleaved caspase 3 and PARP) [1]: induced critical apoptotic molecules in a dose-dependent manner
cell pellet pigmentation (B16 melanoma cells [4]; 20 μM): comparable pigmentation level to controls
cell pellet pigmentation (B16 melanoma cells [4]; 1 mM): lighter cell pigmentation
concentration at which suppression of tyrosinase is observed (tyrosinase [3]): 1 mM
tyrosinase protein expression (tyrosinase [3]; up to 60 μM): does not suppress tyrosinase protein expression
B16 melanoma cell viability / proliferation rate (B16 melanoma cells [2]): inhibit B16 melanoma cell viability at high concentrations

Molecule: CC(=O)Oc1cc(C)c2c(c1)CCC(C)(CCC=C(C)CCC=C(C)CCC=C(C)C)O2 (stereo not shown) [δT3 acetate, δ-tocotrienol acetate]
tyrosinase protein expression (tyrosinase [3]; 20 μM treatment): suppresses tyrosinase protein expression

Molecule: CC(C)=CCCC(C)=CCCC(C)=CCCC1(C)CCc2cc(OC(=O)CCC(=O)O)c(C)c(C)c2O1 (stereo not shown) [γT3 succinate, γ-tocotrienol succinate]
tyrosinase protein expression (tyrosinase [3]; up to 60 μM): does not suppress tyrosinase protein expression

Molecule: CC(O)C(=O)[O-].[Na+] (stereo not shown) [sodium lactate, reference compound]
cell pellet pigmentation (B16 melanoma cells [4]; 20 μM): comparable pigmentation level to controls
cell pellet pigmentation (B16 melanoma cells [4]; [8]): Lighter pigmentation
tyrosinase protein expression (tyrosinase [3]; 20 μM treatment): did not result in observable down-regulation; also recorded: does not suppress tyrosinase protein expression
tyrosinase protein suppression, dose response and relative potency (tyrosinase [3]): observed only at much higher concentration
time response of tyrosinase suppression (tyrosinase [3]): opposite observation; also recorded: diminished after 48 hrs
tyrosinase protein expression (tyrosinase [3]; up to 100 μM): does not suppress tyrosinase protein expression
tyrosinase mRNA (tyrosinase mRNA): not affected; also recorded: No change of tyrosinase mRNA

Source: patent US20130317096A1, “SYNERGISTIC INTERACTION OF AT LEAST ONE VITAMIN E COMPONENT AND TYROSINASE INHIBITORS FOR DERMATOLOGICAL APPLICATIONS” (Davos Life Science Pte Ltd, priority 2010, published 2013)
